{"source": "patent US20200239398A1", "about": "“METHYLENE-CYCLOALKYLACETATE DERIVATIVES AND THEIR USE IN TREATMENT OF NEUROTROPIC CONDITIONS” (Yissum Research Development Company of The Hebrew …, priority 2018, published 2020)", "key": {"[1]": {"test_system": "PC12 cells", "assay": "PC12 cell neurotropic assay (neurite outgrowth)", "type": "cell-based, rat", "details": "10 μM", "method": "PC12 cells were grown in T-200 flasks in high glucose (4.5 gr/L) DMEM medium supplemented with 7% FCS, 7% horse serum and 1% penicillin and streptomycin. Cells were incubated at 37° C. in a humidified incubator containing 6% CO2. All experiments were carried out in a clean room, according to ISO7 requirements (10,000 particles/m^3).\nTissue culture Falcon plates were coated with 200 μg/ml collagen type 1 and placed under UV light for 30 minutes for sterilization. Thereafter, one ml of PC12 cell suspension (5000 cells/well) was applied in 12 or 24 well plate, respectively. The cultures were grown in the incubator two days before exposure to investigated compound.\nThis experimental procedure contained two controls. The first consisted of untreated cells (negative control), representing the random effect: “noise signal”—the ability of cells to spontaneously grow neurite outgrowth which in seven days are of a length less than two-fold cell diameter. Also, negative controls consisted of cultures treated with 1% DMSO, solvent used to solubilize all compounds. The positive control consisted of cells treated with 50 ng/ml NGF, indicating maximal neurite outgrowth that can be achieved in this model. The experimental group consisted of PC12 cells treated with synthetic compounds. In each experiment, after two and seven days, six cultures were evaluated for neurotropic effect. These consecutive observations allow measurement of the progress of neurite outgrowth elongation and the percentage of cells with neurites.^31\nIn order to assess neurotropic effect, the neurite outgrowth length in each culture was quantified. For this purpose, each culture was placed under an inverted microscope and photographed by the attached camera. Each well was photographed at three to five representative areas. After acquiring the photos, they were analyzed by ImageJ, NIH software. The neurite outgrowth was estimated by fractal dimension (Df), a statistical parameter that describes the fractional space (area and length) filled by neurite outgrowth. Df ranged from 0 to 1.20. This method estimates the amount of picsel covered by neurites/cells compared to empty space per square field, and therefore plotting log (number of square boxes) vs. log (size in pixels) relationship generates a linear curve with Df representing the slope of the curve. Every photograph that was taken, was opened in a Photoshop software and a new layer was generated on it. Using a 5-pixel wide digital pencil tool, all the outgrowths were marked and the layer with the markers (outgrowth network) was saved in a 0-255 gray scale as described in FIG. 2. Then, the saved layer was opened by ImageJ NIH software. The software “skeletonized” the layer, measured the length and complexity of every outgrowth in a fractal box count and calculated the fractional dimension parameter (Df).^32\nEach experiment was performed in duplicates and repeated three to four times (n=6-8). By using SPSS software, one way ANOVA was performed for the fractional dimension of each compound, in order to evaluate the neurotropic effect. In case of significance, Bonferroni post-hoc analysis was performed. The results were considered significant when p<0.05."}, "[2]": {"test_system": "spinal cord motor neurons", "assay": "Neurite outgrowth in adult rat spinal cord primary cultures", "type": "cell-based", "details": "10 μM HU-MCA-13 for 7 days", "method": "To study the effect of HU-MCA-13 on adult rat spinal cord primary cultures in vitro, a purification procedure was developed that yields highly enriched motor neurons cultures. Spinal cord motor neuron cultures are an important tool for the study of mechanisms involved in motor neuron survival, degeneration and regeneration, motor neuron disorders such as amyotrophic lateral sclerosis or spinal muscular atrophy as well as in spinal cord injury. This bioassay was performed using vehicle (1% DMSO) DMEM negative control and 10 μM HU-MCA-13, tested compound. Briefly, dissected pieces of adult rat spinal cord tissue were maintained in phosphate-buffered saline (PBS) without Ca^2+ and Mg^2+ and pooled together and transferred to an enzymatic dissociation media containing 20 IU/ml papain in Earle's balanced salt solution (Worthington Biochemical, Freehold, N.J.) and incubated for 30 min at 37° C. After enzymatic dissociation, the papain solution was aspirated and the tissue was mechanically triturated with a fire-polished Pasteur pipette in complete media [Neurobasal Medium with B-27 supplement (Gibco, Grand Island, N.Y.), 100 IU/ml penicillin, […], 3.3 μg/ml aphidicolin, 0.5 mM glutamate] containing 2000 IU/ml DNase and 10-mg/ml protease inhibitors. Single-cell suspensions in complete media was plated on pre-coated collagen IV/laminin mixture-coated 96-well plates (Becton-Dickinson, Bedford, Mass.) at a density of 1.0×10^4 cells/well. The spinal cord motor neurons (red arrows) and accessory Schwann cells (orange) were maintained for one day in culture and then exposed to 1% DMSO-DMEM negative control or 10 μM HU-MCA-13 for 7 days. The cultures were photographed, and Image analysis was performed. Neurite outgrowth was measured and quantified as for PC12 cultures, focusing on two parameters: a. SUM-total area covered by neurite outgrowths; b. mean length of a neurite (microns)."}, "[3]": {"target": "T1, Adrenergic Receptor α2A (ADRA2A) (Homo sapiens, UniProt P08913)", "T1 sequence (P08913 1-465)": "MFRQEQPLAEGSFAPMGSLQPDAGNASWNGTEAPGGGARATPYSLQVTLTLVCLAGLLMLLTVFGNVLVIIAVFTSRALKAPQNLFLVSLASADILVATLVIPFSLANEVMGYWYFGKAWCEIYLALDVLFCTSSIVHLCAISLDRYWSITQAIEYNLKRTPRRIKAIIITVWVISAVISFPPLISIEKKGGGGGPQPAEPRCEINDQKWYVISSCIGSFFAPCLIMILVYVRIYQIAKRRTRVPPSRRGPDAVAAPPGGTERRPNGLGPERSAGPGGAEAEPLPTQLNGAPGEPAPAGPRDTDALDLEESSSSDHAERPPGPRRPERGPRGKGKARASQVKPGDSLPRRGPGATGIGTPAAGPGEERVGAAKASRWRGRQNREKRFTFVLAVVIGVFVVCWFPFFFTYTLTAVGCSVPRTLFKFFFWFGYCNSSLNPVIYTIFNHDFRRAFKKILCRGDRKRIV", "assay": "SAFETYscan ADRA2A cAMP", "type": "cell-based", "details": "10 μM HU-MCA-13"}, "[4]": {"target": "Muscarinic acetylcholine Receptor M3 (CHRM3) (Homo sapiens, UniProt P20309)", "sequence (P20309 whole entry)": "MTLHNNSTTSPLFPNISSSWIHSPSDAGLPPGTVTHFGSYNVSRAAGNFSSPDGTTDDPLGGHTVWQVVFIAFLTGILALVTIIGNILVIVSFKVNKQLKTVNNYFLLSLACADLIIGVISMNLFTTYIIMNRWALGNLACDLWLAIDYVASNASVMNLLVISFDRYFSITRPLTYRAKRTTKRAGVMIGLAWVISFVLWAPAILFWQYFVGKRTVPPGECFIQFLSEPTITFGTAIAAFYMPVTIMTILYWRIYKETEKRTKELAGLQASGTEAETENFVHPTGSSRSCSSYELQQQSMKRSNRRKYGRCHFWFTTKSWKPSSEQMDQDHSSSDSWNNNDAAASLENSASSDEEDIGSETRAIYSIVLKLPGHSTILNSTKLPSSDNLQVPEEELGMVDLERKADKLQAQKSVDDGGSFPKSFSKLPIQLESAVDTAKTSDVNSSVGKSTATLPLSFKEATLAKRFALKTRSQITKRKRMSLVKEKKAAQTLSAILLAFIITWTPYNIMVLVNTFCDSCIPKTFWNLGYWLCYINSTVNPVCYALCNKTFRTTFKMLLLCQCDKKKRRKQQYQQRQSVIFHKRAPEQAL", "assay": "cell-based", "details": "10 μM HU-MCA-13, read-out: Maximal Response"}, "[5]": {"target": "Histamine Receptor H2 (HRH2) (Homo sapiens, UniProt P25021)", "sequence (P25021 whole entry)": "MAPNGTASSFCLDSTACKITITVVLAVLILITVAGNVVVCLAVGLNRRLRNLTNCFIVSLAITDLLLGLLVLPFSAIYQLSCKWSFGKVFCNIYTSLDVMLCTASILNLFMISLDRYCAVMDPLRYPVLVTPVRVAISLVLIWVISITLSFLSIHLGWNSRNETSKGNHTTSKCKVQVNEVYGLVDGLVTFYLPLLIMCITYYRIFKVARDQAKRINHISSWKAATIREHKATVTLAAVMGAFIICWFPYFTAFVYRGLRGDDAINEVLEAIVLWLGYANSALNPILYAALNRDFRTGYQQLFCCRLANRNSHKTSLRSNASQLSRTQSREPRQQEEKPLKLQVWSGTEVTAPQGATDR", "assay": "SAFETYscan HRH2 cAMP", "type": "cell-based", "details": "10 μM HU-MCA-13; for Emax: read-out: Maximal Response"}}, "note": "Read-outs that look alike come from different tables or passages of the source.", "data": [{"smiles": "C=CCC1CCC[C@@H](CCC(=O)O)C1=C", "note": "(some centres unmarked) [Compound 13]", "values": [{"measurement": "Neurotropic effect (mean ± SE) Seven Days Df", "setting": "[1]; PC12 cells, seven days of treatment, Df = fractal dimension of neurite outgrowth", "value": "0.45 ± 0.01"}, {"measurement": "Neurotropic effect (mean ± SE) Two Days Df", "setting": "[1]; PC12 cells, two days of treatment, Df = fractal dimension of neurite outgrowth", "value": "0.39 ± 0.01"}, {"measurement": "Neurotropic effect Seven Days NGF (%)", "setting": "[1]; seven days, relative to NGF 50 ng/ml", "value": 97.8, "unit": "%"}, {"measurement": "Neurotropic effect Two Days NGF (%)", "setting": "[1]; two days, relative to NGF 50 ng/ml", "value": 84.8, "unit": "%"}, {"measurement": "neurotropic activity (in words)", "setting": "[1]; after seven days of treatment", "value": "significant neurotropic activity"}, {"measurement": "inducing fast neurite outgrowth (in words)", "setting": "[1]; after two days of treatment", "value": "most active"}, {"measurement": "mean length of the neurite", "setting": "[2]", "value": 350, "unit": "micrometer"}, {"measurement": "neurotropic effect versus control medium", "setting": "[2]", "value": "four folds neurotropic effect"}, {"measurement": "total (SUM) neurite length", "setting": "[2]", "value": 600, "unit": "micrometer"}, {"measurement": "Maximal Response", "setting": "[3]; Agonist mode", "value": 24.55, "unit": "%"}, {"measurement": "Emax", "setting": "[3]; Antagonist mode, read-out: Maximal Response", "value": 0, "unit": "%"}, {"measurement": "Emax", "setting": "[3]; read-out: Maximal Response, Agonist mode", "value": 24.5, "unit": "%"}, {"measurement": "Emax", "setting": "[4]; Agonist mode", "value": 0.13, "unit": "%"}, {"measurement": "Emax", "setting": "[4]; Antagonist mode", "value": 8.81, "unit": "%"}, {"measurement": "Emax", "setting": "[5]; Agonist mode", "value": 1.78, "unit": "%"}, {"measurement": "Maximal Response", "setting": "[5]; Antagonist mode", "value": 26.94, "unit": "%"}, {"measurement": "Emax", "setting": "[5]; Antagonist mode", "value": 26.9, "unit": "%"}]}]}
